Legend:
Histone deacetylase 2 = Histone deacetylase 2 (Homo sapiens, UniProt Q92769); assay: Inhibition of HDAC2 (unknown origin)
[1] = tested on: Human immunodeficiency virus; assay: Reactivation of HIV latency infected in human 2C4 cells in presence of 0.1 % NHS by luciferase reporter gene assay; assay type: functional, organism-based
[2] = tested on: Human immunodeficiency virus; assay: Reactivation of HIV latency infected in human 2C4 cells in presence of 5 % NHS by luciferase reporter gene assay; assay type: functional, organism-based
Histone deacetylase 8 = biological target: T1, Histone deacetylase 8 (Homo sapiens, UniProt Q9BY41); assay: Inhibition of HDAC8 (unknown origin)
T1 sequence (Q9BY41 whole entry): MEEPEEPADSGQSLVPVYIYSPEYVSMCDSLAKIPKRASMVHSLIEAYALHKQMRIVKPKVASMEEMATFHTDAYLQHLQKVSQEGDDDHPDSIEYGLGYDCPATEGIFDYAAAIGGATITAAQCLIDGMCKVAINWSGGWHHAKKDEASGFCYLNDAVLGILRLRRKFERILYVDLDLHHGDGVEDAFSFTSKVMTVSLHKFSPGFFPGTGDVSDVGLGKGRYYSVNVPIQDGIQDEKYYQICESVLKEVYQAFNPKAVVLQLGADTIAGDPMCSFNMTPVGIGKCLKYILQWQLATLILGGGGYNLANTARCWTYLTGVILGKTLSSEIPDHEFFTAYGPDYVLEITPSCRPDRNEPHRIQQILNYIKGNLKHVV

[3] = biological target: T2, Protein deacetylase HDAC6 (Homo sapiens, UniProt Q9UBN7); assay: Inhibition of HDAC6 (unknown origin)
T2 sequence (Q9UBN7 whole entry): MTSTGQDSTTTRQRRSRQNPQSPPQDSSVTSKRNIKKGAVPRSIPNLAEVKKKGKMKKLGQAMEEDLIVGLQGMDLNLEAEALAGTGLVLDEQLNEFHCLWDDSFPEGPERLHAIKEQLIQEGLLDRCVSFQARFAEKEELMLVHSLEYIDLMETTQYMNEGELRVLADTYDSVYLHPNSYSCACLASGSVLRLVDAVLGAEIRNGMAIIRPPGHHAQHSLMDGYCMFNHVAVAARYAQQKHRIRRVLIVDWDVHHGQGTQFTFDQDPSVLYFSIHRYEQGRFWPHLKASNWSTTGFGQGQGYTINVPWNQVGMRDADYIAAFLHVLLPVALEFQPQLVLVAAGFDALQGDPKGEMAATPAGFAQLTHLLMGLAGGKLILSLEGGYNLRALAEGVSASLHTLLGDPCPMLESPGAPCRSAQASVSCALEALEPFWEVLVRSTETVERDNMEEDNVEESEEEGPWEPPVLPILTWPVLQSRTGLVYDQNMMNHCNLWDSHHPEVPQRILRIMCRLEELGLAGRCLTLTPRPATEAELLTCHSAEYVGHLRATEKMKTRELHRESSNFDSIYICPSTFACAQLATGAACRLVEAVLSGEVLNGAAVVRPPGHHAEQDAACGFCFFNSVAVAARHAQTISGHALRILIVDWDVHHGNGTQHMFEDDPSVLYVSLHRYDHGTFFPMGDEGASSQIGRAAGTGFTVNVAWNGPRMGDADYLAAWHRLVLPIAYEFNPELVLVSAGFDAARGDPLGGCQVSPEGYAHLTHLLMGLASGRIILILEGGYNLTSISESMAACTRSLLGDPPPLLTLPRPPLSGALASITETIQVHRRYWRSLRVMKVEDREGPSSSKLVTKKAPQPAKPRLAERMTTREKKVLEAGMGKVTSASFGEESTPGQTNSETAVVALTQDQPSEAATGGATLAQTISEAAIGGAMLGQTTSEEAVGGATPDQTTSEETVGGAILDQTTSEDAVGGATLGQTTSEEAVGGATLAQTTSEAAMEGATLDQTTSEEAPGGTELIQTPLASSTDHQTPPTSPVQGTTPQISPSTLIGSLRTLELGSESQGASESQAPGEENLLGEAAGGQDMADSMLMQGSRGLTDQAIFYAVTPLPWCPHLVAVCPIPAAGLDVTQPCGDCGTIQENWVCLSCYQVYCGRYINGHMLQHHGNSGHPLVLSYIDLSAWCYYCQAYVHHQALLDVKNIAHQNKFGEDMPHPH

Histone deacetylase 1 = Histone deacetylase 1 (Homo sapiens, UniProt Q13547); assay: Inhibition of HDAC1 (unknown origin)
Sequence of Histone deacetylase 1 (Q13547 whole entry): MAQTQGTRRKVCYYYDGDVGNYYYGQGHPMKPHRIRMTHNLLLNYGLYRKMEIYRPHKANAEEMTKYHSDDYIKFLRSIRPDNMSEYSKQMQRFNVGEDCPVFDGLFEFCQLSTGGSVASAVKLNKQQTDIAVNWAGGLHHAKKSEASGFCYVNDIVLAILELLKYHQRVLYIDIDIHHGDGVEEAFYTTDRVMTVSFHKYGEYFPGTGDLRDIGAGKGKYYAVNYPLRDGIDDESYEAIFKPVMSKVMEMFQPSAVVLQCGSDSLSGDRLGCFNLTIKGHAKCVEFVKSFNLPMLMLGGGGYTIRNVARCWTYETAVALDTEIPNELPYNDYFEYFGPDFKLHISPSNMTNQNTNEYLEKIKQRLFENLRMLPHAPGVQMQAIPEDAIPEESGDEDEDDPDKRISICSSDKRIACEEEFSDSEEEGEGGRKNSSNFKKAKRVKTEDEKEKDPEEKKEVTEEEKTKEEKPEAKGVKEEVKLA

Histone deacetylase 3 = Histone deacetylase 3 (Homo sapiens, UniProt O15379); assay: Inhibition of HDAC3 (unknown origin)
Sequence of Histone deacetylase 3 (O15379 whole entry): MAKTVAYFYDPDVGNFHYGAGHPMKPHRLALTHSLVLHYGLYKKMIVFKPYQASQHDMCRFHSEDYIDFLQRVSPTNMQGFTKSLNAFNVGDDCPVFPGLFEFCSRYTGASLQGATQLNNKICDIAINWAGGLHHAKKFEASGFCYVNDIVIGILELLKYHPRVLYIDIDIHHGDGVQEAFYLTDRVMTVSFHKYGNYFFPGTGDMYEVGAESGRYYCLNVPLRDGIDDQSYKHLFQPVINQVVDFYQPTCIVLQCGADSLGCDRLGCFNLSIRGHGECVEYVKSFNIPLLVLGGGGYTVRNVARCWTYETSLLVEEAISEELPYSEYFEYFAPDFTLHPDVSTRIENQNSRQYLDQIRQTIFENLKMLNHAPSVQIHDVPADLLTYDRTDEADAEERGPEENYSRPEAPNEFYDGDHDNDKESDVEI

Homo sapiens = organism: Homo sapiens; assay: Selectivity ratio of IC50 for HDAC8 (unknown origin) to IC50 for HDAC6 (unknown origin)
[4] = Tmax in Wistar Han rat at 10 mg/kg, po; assay type: ADME, organism-based; conditions: in vivo
[5] = Oral bioavailability in Wistar Han rat at 10 mg/kg; assay type: ADME, organism-based; conditions: in vivo
[6] = Cmax in Wistar Han rat at 10 mg/kg, po; assay type: ADME, organism-based; parameters: route oral, dose 10 mg/kg; conditions: in vivo
[7] = Clearance in Wistar Han rat at 2 mg/kg, iv; assay type: ADME, organism-based; conditions: in vivo
[8] = AUC in Wistar Han rat at 10 mg/kg, po; assay type: ADME, organism-based; parameters: dose 10 mg/kg; conditions: in vivo
[9] = Ratio of EC50 for reactivation of HIV latency infected in human 2C4 cells in presence of 5 % NHS by luciferase reporter gene assay to EC50 for reactivation of HIV latency infected in human 2C4 cells in presence of 0.1 % NHS by luciferase reporter gene assay; assay type: functional, Human immunodeficiency virus
[10] = Half life in Wistar Han rat at 2 mg/kg, iv; assay type: ADME, organism-based; conditions: in vivo
[11] = Human immunodeficiency virus 1, 2C4

Sequence of Histone deacetylase 2 (Q92769 whole entry): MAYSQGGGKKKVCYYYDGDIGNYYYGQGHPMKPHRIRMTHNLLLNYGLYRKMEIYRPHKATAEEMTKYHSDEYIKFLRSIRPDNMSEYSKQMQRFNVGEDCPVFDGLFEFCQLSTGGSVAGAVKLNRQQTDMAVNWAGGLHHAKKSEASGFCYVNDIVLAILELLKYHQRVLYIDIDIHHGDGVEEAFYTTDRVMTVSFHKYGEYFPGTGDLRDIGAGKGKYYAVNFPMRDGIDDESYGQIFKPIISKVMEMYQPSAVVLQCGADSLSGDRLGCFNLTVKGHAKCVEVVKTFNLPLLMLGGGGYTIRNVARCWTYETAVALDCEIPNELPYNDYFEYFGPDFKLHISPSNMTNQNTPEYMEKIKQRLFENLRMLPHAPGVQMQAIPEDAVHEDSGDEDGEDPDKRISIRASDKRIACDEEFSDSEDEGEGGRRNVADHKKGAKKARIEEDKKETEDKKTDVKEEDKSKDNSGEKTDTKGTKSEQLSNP

IC50 (Histone deacetylase 2) [µM]	EC50 [1, 11] [µM]	EC50 [2, 11] [µM]	IC50 (Histone deacetylase 8) [µM]	IC50 [3] [µM]	SMILES	other results
0.049	0.844	0.867	> 0.9	> 0.9	CCC(=O)CCCCC[C@@H]1NC(=O)[C@H]2CC23CCN(CCCCN2C4CCC2c2cc(ccc24)-c2cnc1[nH]2)CC3 (some centres not stated)	–
0.26	5.15	4.73	> 0.9	0.858	CCC(=O)CCCCC[C@@H]1NC(=O)[C@H]2CC23CCN(CCCCCn2c(=O)ccc4cc(ccc42)-c2cnc1o2)CC3	IC50 (Histone deacetylase 1): 0.016 µM; IC50 (Histone deacetylase 3): 0.056 µM
–	0.193	0.165	–	–	CCC(=O)CCCCC[C@H](NC(=O)[C@H]1CC12CCN(CC)CC2)c1[nH]c(-c2ccc(F)cc2)nc1C(N)=O	–
0.249	2.47	2.36	15	5.75	CCC(=O)CCCCC[C@H](NC(=O)C1CN(C)C1)c1ncc(-c2ccccc2)[nH]1	IC50 (Histone deacetylase 1): 0.037 µM; IC50 (Histone deacetylase 3): 0.012 µM
–	0.011	0.012	> 0.9	–	CCC(=O)CCCCC[C@@H]1NC(=O)[C@H]2CC23CCN(CCCCCCCCn2ccc4cc(c(OC)cc4c2=O)-c2cnc1[nH]2)CC3	Ratio IC50 (Homo sapiens): > 1000; Tmax [4]: 3 h; bioavailability [5]: 2.9%; Cmax [6]: 13 nM; clearance [7]: 96 mL/min/kg; AUC [8]: 0.04 µM·h; Ratio EC50 [9]: 1.1; half-life [10]: 1.4 h
2.83	–	–	–	–	CCC(=O)CCCCC[C@@H]1NC(=O)C2CCN2CCCCCCOc2ccccc2-c2cnc1[nH]2 (stereo in doubt; 5)	IC50 (Histone deacetylase 1): 0.682 µM; IC50 (Histone deacetylase 3): 0.242 µM
–	> 40	> 40	> 0.9	> 0.9	CCC(=O)CCCCC[C@@H]1NC(=O)[C@H]2CC23CCN(CCCOCCn2ccc4cc(ccc4c2=O)-c2cnc1[nH]2)CC3	–

The remaining lines, values behind:

SMILES	IC50 (Histone deacetylase 2) [µM]	EC50 [1, 11] [µM]	EC50 [2, 11] [µM]	IC50 (Histone deacetylase 8) [µM]	IC50 [3] [µM]	other results
CCC(=O)CCCCC[C@H](NC(=O)[C@H]1CC12CCN(CC)CC2)c1[nH]c2nc1C(=O)NCCC/C=C\c1cccc-2c1	–	1.46	2.88	0.09	> 0.9	–
CCC(=O)CCCCC[C@H](NC(=O)C1CN(C)C1)c1[nH]c(-c2ccccc2)nc1C(N)=O	–	0.294	0.269	–	–	–
CCC(=O)CCCCC[C@H](NC(=O)[C@H]1CC12CCN(C)CC2)c1ncc(-c2ccc3c(c2)C2CCC3C2)[nH]1 (some centres not stated)	0.0037	0.351	0.376	–	–	–
CCC(=O)CCCCC[C@@H]1NC(=O)C2CCN2CCCCCCc2ccccc2-c2cnc1[nH]2 (stereo in doubt; 7)	5.95	–	–	–	9.83	IC50 (Histone deacetylase 1): 2.94 µM; IC50 (Histone deacetylase 3): 1.22 µM
CCC(=O)CCCCC[C@@H]1NC(=O)[C@H]2CC23CCN(CCCOCCCn2ccc4cc(ccc4c2=O)-c2cnc1[nH]2)CC3	–	1.79	1.99	–	> 0.9	–
CCC(=O)CCCCC[C@H](NC(=O)[C@H]1CC12CCN(CC)CC2)c1[nH]c2nc1C(=O)NCCCCCc1cccc-2c1	> 0.9	> 40	12	> 0.9	> 0.9	–
CCC(=O)CCCCC[C@@H]1NC(=O)[C@H]2CCCCN2C(=O)[C@H]([C@@H](C)CC)NC(=O)[C@H](Cc2cn(OC)c3ccccc23)NC1=O	–	–	–	–	–	EC50 ([1]; 2c4): 0.125 µM; EC50 ([2]; 2c4): 0.587 µM

From ChEMBL document CHEMBL4811291, “Discovery of macrocyclic HDACs 1, 2, and 3 selective inhibitors for HIV latency reactivation” (Bioorg Med Chem Lett, 2021)
